Test results from patent publication US20220378923A1, “BET DEGRADER” (KYOWA KIRIN CO., LTD., priority 2019, published 2022).
Read-outs that look alike come from different tables or passages of the source.

What was measured:
SU-DHL-4 cells = experiment: Inhibitory effect on cell viability in SU-DHL-4 cell line (Test Example 1); type: cell-based, human; details: 72 hours; for IC50: SU-DHL-4 (wild type) cells, calculated using the measurement results of test example 1, read-out: SU-DHL-4 WT IC50; for IC90: SU-DHL-4 cells, Cell Counting Kit-8, concentration showing 90% inhibition of cell viability, read-out: SU-DHL-4 Cell Viability Inhibition Rate IC90
Procedure, shortened: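 SU-DHL-4 cells were grown at 37° C. under 5% CO2 in RPMI1640 with 10 vol % heat-inactivated FBS plus penicillin/streptomycin, seeded and precultured for 18 to 25 hours, then exposed to test compound at 0.1 vol % DMSO for 72 hours. Viability was read with Cell Counting Kit-8 by absorbance at 450 nm.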

DCAF16 KO SU-DHL-4 cells = experiment: Inhibitory effect on cell viability using SU-DHL-4 DCAF16 knock out (KO) cell line (Test Example 6); type: cell-based, human; details: for Activity Attenuation Ratio: (SU-DHL-4 DCAF16 KO IC50)/(SU-DHL-4 WT IC50); for IC50: DCAF16 KO SU-DHL-4 cells, 72 hours, Cell Counting Kit-8, 50% inhibition of cell viability
Procedure, shortened: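 SU-DHL-4 DLBCL cells carrying lentiviral Cas9 plus DCAF16-targeting sgRNA (three KO strains; non-targeting control strain), seeded 2000 cells/well, pre-cultured 18–25 h, then given 9-step compound dilutions (0.1% DMSO final) for 72 h at 37° C. Viability read by CCK-8 colorimetric assay.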

Row | SMILES | IC50 (SU-DHL-4 cells) [nM] | IC90 (SU-DHL-4 cells) [nM] | IC50 (DCAF16 KO SU-DHL-4 cells) [nM] | IC50 (SU-DHL-4 cells; Homo sapiens) [nM] | IC90 (SU-DHL-4 cells; Homo sapiens) [nM] | IC50 (DCAF16 KO SU-DHL-4 cells; Homo sapiens) [nM] | Activity Attenuation Ratio (DCAF16 KO SU-DHL-4 cells)
1 | CCC(=O)N1c2ccccc2[C@H](Nc2ccc(NC(=O)CCCC(=O)Nc3cccc(Oc4ccc(NS(=O)(=O)CC)cc4-c4cn(C)c(=O)cc4OC)c3)cc2)C[C@@H]1C [Compound 16j, N^1-(3-(4-(Ethylsulfonamide)-2-(4-methoxy-1-methyl-6-oxo-1,6-dihydropyridin-3-yl)phenoxy)phenyl)-N5-(4-(((2S,4R)-2-methyl-1-propionyl-1,2,3,4-tetrahydroquinolin-4-yl)amino)phenyl)glutaramide] | 0.5 | 3.09 | 106 |  |  |  | 213
2 | CCC(=O)N1c2ccccc2[C@H](Nc2ccc(NC(=O)CCCC(=O)NC3CCC(Cn4cc(-c5c(C)noc5C)ccc4=O)CC3)cc2)C[C@@H]1C (stereo partly drawn) [Compound 16p, N^1-((1r,4r)-4-((5-(3,5-Dimethylisoxazol-4-yl)-2-oxopyridin-1(2H)-yl)methyl)cyclohexyl)-N5-(4-(((2S,4R)-2-methyl-1-propionyl-1,2,3,4-tetrahydroquinolin-4-yl)amino)phenyl)glutaramide] | 0.27 | 0.63 | 925 |  |  |  | 3390
3 | CCNC(=O)C[C@@H]1N=C(c2ccc(SCCCCSc3ccc(C4=N[C@@H](CC(=O)NCC)c5nnc(C)n5-c5ccc(OC)cc54)cc3)cc2)c2cc(OC)ccc2-n2c(C)nnc21 [compound 1, 2,2′-((4S,4'S)-6,6′-((butane-1,4-diylbis(sulfanediyl))bis(4,1-phenylene))bis(8-methoxy-1-methyl-4H-benzo[f][1,2,4]triazolo[4,3-a][1,4]diazepine-6,4-diyl))bis(N-ethylacetamide), reference compound] | 221 | 2560 | 49.2 |  |  |  | 0.23
4 | Cc1sc2c(c1C)C(c1ccc(Cl)cc1)=N[C@@H](CC(=O)NCCOCCOCCOCCOCCOCCOCCOCCNC(=O)C[C@@H]1N=C(c3ccc(Cl)cc3)c3c(sc(C)c3C)-n3c(C)nnc31)c1nnc(C)n1-2 [compound 2, reference compound] | 235 | > 10000 | 75.7 |  |  |  | 0.32

Continued, in another order:

Row | IC50 (SU-DHL-4 cells) [nM] | IC90 (SU-DHL-4 cells) [nM] | IC50 (DCAF16 KO SU-DHL-4 cells) [nM] | IC50 (SU-DHL-4 cells; Homo sapiens) [nM] | IC90 (SU-DHL-4 cells; Homo sapiens) [nM] | IC50 (DCAF16 KO SU-DHL-4 cells; Homo sapiens) [nM] | SMILES | Activity Attenuation Ratio (DCAF16 KO SU-DHL-4 cells)
5 |  |  |  | 0.62 | 1.85 | 208 | CCC(=O)N1c2ccccc2[C@H](Nc2ccc(NC(=O)CCCC(=O)Nc3cccc(Oc4ccccc4-c4cn(C)c(=O)cc4OC)c3)cc2)C[C@@H]1C [Compound 16m, N^1-(3-(2-(4-Methoxy-1-methyl-6-oxo-1,6-dihydropyridin-3-yl)phenoxy)phenyl)-N5-(4-(((2S,4R)-2-methyl-1-propionyl-1,2,3,4-tetrahydroquinolin-4-yl)amino)phenyl)glutaramide] | 338
6 |  |  |  | 24.8 | 80.3 | 2400 | CCC(=O)N1c2ccccc2[C@H](Nc2ccc(NC(=O)CCCC(=O)Nc3ccc(C(=O)N4CCC(=O)Nc5ccccc54)cc3)cc2)C[C@@H]1C [Compound 16o, N^1-(4-(((2S,4R)-2-Methyl-1-propionyl-1,2,3,4-tetrahydroquinolin-4-yl)amino)phenyl)-N5-(4-(4-oxo-2,3,4,5-tetra hydro-1H-benzo[b][1,4]diazepine-1-carbonyl)phenyl)glutaramide] | 96
7 |  |  |  | 0.1 | 0.16 | 182 | CCC(=O)N1c2ccccc2[C@H](Nc2ccc(NC(=O)CCCC(=O)Nc3ccc(Cn4cc(-c5c(C)noc5C)ccc4=O)cc3)cc2)C[C@@H]1C [Compound 17a, N^1-(4-((5-(3,5-Dimethylisoxazol-4-yl)-2-oxopyridin-1(2H)-yl)methyl)phenyl)-N5-(4-(((2S,4R)-2-methyl-1-propionyl-1,2,3,4-tetrahydroquinolin-4-yl)amino)phenyl)glutaramide] | 1895
